From PubChem BioAssay (NCI)
Several values for one entry are separate records, joined by “and”; a condition that tells them apart may be missing. Equal values may be shown once.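 96-well plates; 48 h exposure; 5 concentrations. Endpoints by linear interpolation between flanking doses. Not reached: highest tested concentration assigned. GI50 is the concentration that inhibits growth by half. At the TGI there is no net growth.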

Key:
Experiment in all cases: NCI anticancer screen, dose series, 48 h
CCRF-CEM leukemia = system: CCRF-CEM leukemia
COLO 205 colon = system: COLO 205 colon
HOP-62 NSCLC = system: HOP-62 NSCLC
786-0 renal = system: 786-0 renal
A549 NSCLC = system: A549 NSCLC
NCI-H522 lung = system: NCI-H522 lung
SF-268 CNS = system: SF-268 CNS
SNB-75 CNS = system: SNB-75 CNS
SK-MEL-2 melanoma = system: SK-MEL-2 melanoma
IGROV1 ovarian = system: IGROV1 ovarian

SMILES | GI50 (CCRF-CEM leukemia) | TGI (CCRF-CEM leukemia) | GI50 (COLO 205 colon) | TGI (COLO 205 colon) | GI50 (HOP-62 NSCLC) | TGI (HOP-62 NSCLC) | GI50 (786-0 renal) | TGI (786-0 renal) | GI50 (A549 NSCLC) | TGI (A549 NSCLC) | GI50 (NCI-H522 lung) | TGI (NCI-H522 lung) | GI50 (SF-268 CNS) | TGI (SF-268 CNS) | GI50 (SNB-75 CNS) | TGI (SNB-75 CNS) | GI50 (SK-MEL-2 melanoma) | TGI (SK-MEL-2 melanoma) | GI50 (IGROV1 ovarian) | TGI (IGROV1 ovarian)
COc1ccc(/C=C\c2cc(OC)c(OC)c(OC)c2)c(NS(=O)(=O)c2ccc(Cl)cc2)c1O | 0.159 µM | > 100 µM | 1.74 µM | 5.76 µM | 0.671 µM | 46.1 µM | 0.572 µM | 24.8 µM | 0.27 µM | > 100 µM | 0.0848 µM | 0.607 µM | 0.38 µM | 33.9 µM | 0.0331 µM | 17.4 µM | 0.0659 µM | 21.3 µM | 0.379 µM | 49.5 µM
O=C1CCN2CCC(=O)c3c2c(cc2ccccc32)N1 |  | > 100 µM |  | > 100 µM |  | > 100 µM |  | > 100 µM |  | > 100 µM |  | > 100 µM |  | > 100 µM |  | > 100 µM |  | > 100 µM |  | > 100 µM
COc1cc(/C=C/c2ccc(OC)c(OC)c2OC)cc(OC)c1OC |  | 85.8 µM |  | 33.3 µM |  | 32.9 µM |  | 51.6 µM |  | > 88.9 µM |  | > 51.6 µM |  | > 64.2 µM |  | 56.7 µM |  | 36.1 µM |  | 83.3 µM
Cc1cnc(Nc2ccc(OCCN3CCCC3)cc2)nc1Nc1cccc(S(=O)(=O)NC(C)(C)C)c1 | 0.398 µM and 1.3 µM | > 21.7 µM | 0.72 µM | 0.859 µM and 2.55 µM | 0.305 µM and 0.848 µM | 9.5 µM and > 8.68 µM | 0.197 µM and 1.01 µM | 3.95 µM and 2.86 µM | 0.335 µM and 1.36 µM | 7.29 µM and 6 µM | 0.053 µM and 0.371 µM | 1.35 µM and 3.15 µM | 1.69 µM and 1.67 µM | 7.52 µM and > 8.99 µM | 0.0852 µM and 0.286 µM | 0.686 µM and 1.76 µM | 0.17 µM and 0.759 µM | 2.68 µM and > 10 µM | 0.0833 µM and 0.558 µM | 1.75 µM and 4.49 µM
Nc1nc(N)nc(CC(=O)O)n1 |  | > 100 µM |  | > 100 µM |  | > 100 µM |  | > 100 µM |  | > 100 µM |  | > 100 µM |  | > 100 µM |  | > 100 µM |  | > 100 µM |  | > 100 µM
Cc1c(Cl)cccc1NC(=O)/C(Cl)=C(\Cl)C(=O)O |  | 44.5 µM |  | 21.6 µM |  | 78.5 µM |  | 33.3 µM |  | 38.9 µM |  | 7.19 µM |  | 40.9 µM |  | 46.7 µM |  | 49.2 µM |  | 35.7 µM
Clc1ccc2c(c1)C(N1CCNCC1)=Nc1ccccc1O2 | 1.9 µM | 4.77 µM | 1.36 µM | 2.67 µM | 2.01 µM | 4.66 µM | 1.49 µM | 3.27 µM | 4.5 µM | 16.9 µM | 1.82 µM | 3.87 µM | 2.65 µM | 11.8 µM | 1.13 µM | 2.79 µM | 1.77 µM | 3.4 µM | 2.89 µM | 11.1 µM
Cc1cc(=O)oc2cc(OC(=O)N(CCCl)CCCl)ccc12 |  | > 100 µM |  | > 100 µM |  | > 100 µM |  | > 100 µM |  | > 100 µM |  | > 100 µM |  | > 100 µM |  | > 100 µM |  | > 100 µM |  | > 100 µM
CC(C)(C)n1cc(-c2ccnc(NCCCNS(=O)(=O)c3ccc(Br)cc3)c2)c(-c2cccc(O)c2)n1 | 2.26 µM | > 100 µM | 1.85 µM | 3.79 µM | 2.05 µM | 4.2 µM | 1.66 µM | 3.16 µM | 2.11 µM | 5.39 µM | 2.13 µM | 4.55 µM | 2.4 µM | 6.48 µM | 1.76 µM | 4.11 µM | 2.13 µM | 4.31 µM | 1.91 µM | 3.93 µM
CC(=O)c1cc(-c2ccccc2N)n(-c2ccc3c(c2)OCO3)c1C | 0.336 µM | > 100 µM | 0.328 µM | 1.32 µM | 0.435 µM | > 100 µM | 0.388 µM | > 100 µM | 0.313 µM | > 100 µM | 0.139 µM | 5.49 µM | 0.4 µM | > 100 µM | 0.255 µM | > 93.9 µM | 0.31 µM |  | 0.529 µM | > 100 µM
CCOC(=O)Cc1csc(N=Nc2c(O)[nH]c3ccccc23)n1 |  | 83.3 µM |  | > 100 µM |  | > 100 µM |  | > 100 µM |  | > 100 µM |  | 93.5 µM |  | > 100 µM |  | 96.6 µM |  | > 100 µM |  | > 100 µM
CCCCNC(=O)Oc1ccc(/C(=C(/CC)Cc2ccccc2)c2ccc(OCCN3CCCCCC3)cc2)cc1 | 31.9 µM | 93.5 µM | 20.6 µM | 39.7 µM | 70.8 µM | > 100 µM | 16.2 µM | 30 µM | 32.4 µM | > 100 µM | 20 µM | 43.8 µM | 59.8 µM | > 100 µM | > 100 µM | > 100 µM | 71.9 µM | > 100 µM | 30.5 µM | > 100 µM
CN(C)CCCc1c2ccccc2nc2ccc(Cl)cc12 |  | 35.8 µM |  | 29.8 µM |  | 30 µM |  | 24.4 µM |  | 28.3 µM |  | 29.4 µM |  | 33.3 µM |  | 31.8 µM |  | 34.8 µM |  | 31 µM
CC1=C(/C=C/C(C)=C/C=C/C(C)=C/C=C/C=C(C)/C=C/C=C(C)/C=C/C2=C(C)C(=O)C(O)CC2(C)C)C(C)(C)CC(O)C1=O (centres undefined) |  | > 100 µM |  | > 100 µM |  | > 100 µM |  | > 100 µM |  | > 100 µM |  | > 100 µM |  | > 100 µM |  | > 100 µM |  | > 100 µM |  | > 100 µM
S=P(N1CCCC1)(N1CC1)N1CC1 |  | > 100 µM |  | > 100 µM |  | > 100 µM |  | > 100 µM |  | > 100 µM |  | > 100 µM |  | > 100 µM |  | > 100 µM |  | > 100 µM |  | > 100 µM
COc1ccc(N2C(=O)C3c4[nH]c5ccccc5c4C4CCCCCCC4C3C2=O)cc1 (centres undefined) |  | 21.5 µM |  | > 48.6 µM |  | 26 µM |  | 8.29 µM |  | 22.8 µM |  | 36.5 µM |  | 31.3 µM |  | 27.8 µM |  | > 69.8 µM |  | 59.1 µM
CCOC(=O)C1=C(Nc2ccc(Cl)c(Cl)c2)OC/C1=N\NC(=O)Cc1ccccc1 |  | > 100 µM |  | > 100 µM |  | > 100 µM |  | > 100 µM |  | > 100 µM |  | > 100 µM |  | > 100 µM |  | > 100 µM |  | > 100 µM |  | > 100 µM
